Experimental data from patent US5439932A, “Substituted amine derivatives having anti-hyperlipemia activity” (Banyu Pharmaceutical Co., Ltd., priority 1990, dated 1995).
Counter-ions that a name gives are not always drawn.

Molecular target: T1, Human squalene epoxidase (Homo sapiens, UniProt Q14534)
T1 construct: endogenous in cells; host or cells: Hep-G2 (human hepatoma) cells, microsomes solubilized with Triton X-100
Test: Human squalene epoxidase inhibition action
Assay type: biochemical
Conditions: solubilized squalene epoxidase fraction from human hepatoma (Hep-G2) cells; 8 μM 3H-squalene; 37° C., 60 minutes; pH 7.5; read-out: 50% inhibitory concentration (IC50)
Description: Squalene epoxidase inhibition action (1) Preparation of squalene epoxidase Human squalene epoxidase is prepared based on the method disclosed in J. Biol. Chem. 245, 1670 (1970) and ibid. 250, 1572 (1975). Namely, human hepatoma (Hep-G2) cells are cultured at 37° C. under 5% carbon dioxide-mixed air. After completion of the culture the cells are scraped and recovered by centrifugation. The cells are suspended (1×10^8 cells/ml) in a 0.1M Tris-HCl buffer (pH 7.5), the suspension is homogenized and centrifuged at 9,750×g for 10 minutes, and the sediment is washed with a 0.1M Tris-HCl buffer (pH 7.5) and centrifuged at 105,000×g for 1 hour. […] After this solubilization treatment, the solution is diluted with 1 mM EDTA and 1 mM dithiothreitol so that the Triton X-100 concentration becomes 0.125%, and then centrifuged at 105,000×g for 1 hour. The resulting supernatant is used in the later test as a squalene epoxidase fraction. (2) Method for measurement of squalene epoxidase activity Measurement of human squalene epoxidase activity is carried out based on the method disclosed in J. Biol. Chem. 245, 1670 (1970). Namely, […] of a dimethylsulfoxide solution of a test drug is added to a solution consisting of 0.2 ml of the squalene epoxidase fraction prepared in (1) [Protein amount 0.4 mg, 0.1% Triton X-100, […] buffer (pH 7.5)], 100 μM FAD, 1 mM NADPH, 1 mM EDTA and 8 μM ^3 H-squalene-Tween 80 suspension to make the total volume 0.3 ml, and the mixture is subjected to shaking reaction at 37° C. for 60 minutes. 0.3 ml of a 10% potassium hydroxide-methanol solution is added to stop the reaction, and the mixture is heated at 75° C. for 1 hour. Then, after extraction of the nonsaponified substances, the extract is concentrated to dryness in a stream of nitrogen. […] The position of the formed ^3 H-squalene-2,3-epoxide on TLC is ascertained using as a marker ergosterol acetate and the ^3 H-squalene-2,3-epoxidepart of TLC is cut out. The TLC piece is immersed in a toluene series scintillator and measurement is carried out using a liquid scintillation counter. By this, 50% inhibitory concentrations (IC50 values) of compounds of the invention on squalene epoxidase are determined, and the results are shown in the following table.

T1 sequence (Q14534 whole entry): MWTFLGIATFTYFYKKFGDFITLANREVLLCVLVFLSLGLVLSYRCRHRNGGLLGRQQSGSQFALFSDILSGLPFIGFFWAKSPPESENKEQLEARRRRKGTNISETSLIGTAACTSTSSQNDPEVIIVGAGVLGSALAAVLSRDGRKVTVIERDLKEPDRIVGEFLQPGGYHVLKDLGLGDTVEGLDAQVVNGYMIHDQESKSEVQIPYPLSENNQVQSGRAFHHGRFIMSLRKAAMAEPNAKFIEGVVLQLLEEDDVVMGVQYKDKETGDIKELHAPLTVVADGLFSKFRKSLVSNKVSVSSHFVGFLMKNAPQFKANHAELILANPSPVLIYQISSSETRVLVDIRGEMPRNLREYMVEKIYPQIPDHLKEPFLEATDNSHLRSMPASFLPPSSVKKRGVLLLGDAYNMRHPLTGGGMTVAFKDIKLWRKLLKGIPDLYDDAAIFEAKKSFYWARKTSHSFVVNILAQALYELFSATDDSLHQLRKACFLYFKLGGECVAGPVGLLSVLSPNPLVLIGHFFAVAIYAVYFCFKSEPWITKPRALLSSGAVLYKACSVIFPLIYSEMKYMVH

| IC50 [nM] | Compound |
| --- | --- |
| 0.8 | CCN(C/C=C/C#CC(C)(C)OC)Cc1ccc(COC/C=C/c2ccsc2)o1 [Example 30, (E,E)-N-ethyl-N-(6-methoxy-6-methyl-2-hepten-4-ynyl)-5-[3-(3-thienyl)-2-propenyloxymethyl]-2-furylmethylamine hydrochloride] |
| 0.4 | CCN(CC#C/C=C/C(C)(C)C)Cc1ccc(COC/C=C/c2ccsc2)o1 [Example 46, (E,E)-N-ethyl-N-(6,6-dimethyl-4-hepten-2-ynyl)-5-[3-(3-thienyl)-2-propenyloxymethyl]-2-furylmethylamine] |
| 0.4 | CCN(C/C=C/C#CC(C)(C)CC)CCOCCOc1cccc(-c2ccsc2)c1 [Example 35, (E)-N-ethyl-N-(6,6-dimethyl-2-octen-4-ynyl)-2-[2-[3-(3-thienyl)phenoxy]ethoxy]ethylamine hydrochloride] |
| 0.5 | CCN(CC#CC#CC(C)(C)OC)Cc1ccc(/C=C/COCc2ccsc2)o1 [Example 48, (E)-N-ethyl-N-(6-methoxy-6-methyl-2,4-heptadiynyl)-5-[3-(3-thienylmethoxy)-1-propenyl]-2-furylmethylamine] |
| 0.3 | CCN(C/C=C/C#CC(C)(C)OC)Cc1cccc(COC/C=C/c2ccsc2)c1 [Example 7, (E,E)-N-ethyl-N-7(6-methoxy-6-methyl-2-hepten-4-ynyl)-3-3-(3-thienyl)-2-propenyloxymethyl]benzylamine hydrochloride] |
| 0.2 | CN(C/C=C/C#CC(C)(C)C)Cc1ccc(COC/C=C/c2ccsc2)o1 [Example 38, (E,E)-N-methyl-N-(6,6-dimethyl-2-hepten-4-ynyl)-5-[3-(3-thienyl)-2-propenyloxymethyl]-2-furylmethylamine] |
